Key:
[1] = tested on: androgenic, estrogenic and glucocorticoid responses; conditions: cited from earlier work
[2] = tested on: primary hippocampal neurons; assay: Neuroprotection of primary hippocampal neurons against glutamate, LDH release; assay type: cell-based
Experimental: The effect of NES and other progestins on CNS plasticity and the neuroprotective efficacy against glutamate toxicity has also been evaluated. LDH was measured, as a well-accepted assay, to determine such effect after exposure of the cells to glutamate, and the neuronal viability was assessed under the action of various progestins.
Comparisons of neuroprotection against neurodegenerative insults were carried out. Efficacy was determined in connection with the protection of primary hippocampal neurons against degeneration induced by excitoxic glutamate. Hippocampal neuronal cultures grown on […] culture plates for 7d in vitro were pretreated with vehicle alone or test compounds, followed by exposure to 200 μM glutamate as previously described (13). After glutamate exposure, cultures were washed with HEPES-buffered saline solution and replaced with fresh NBM containing the test compounds or combinations. Cultures were returned to the incubator and incubated for 24 hours prior to analysis of neuronal viability using colorimetric LDH release in the media. Dose-response analysis was conducted for each of the progestins tested, and the results are shown in FIGS. 7A-F. Neuroprotective efficiency was calculated as follows: NE=(Vsample−Vglutamate)/(Vsubcontrol−Vglutamate).

PR^lacz mice with MCAO = assay: Transient middle cerebral artery occlusion (MCAO), steroid treatment after reperfusion; assay type: in vivo, mouse
Experimental: In experiments conducted using progesterone receptor (PR) deficient mice (PR^−/−) compared with PR^+/− and PR^+/+ mice and both progesterone and Nestorone® were administered after ischemia and reperfusion.
In order to test the effect of steroid treatments after reperfusion, adult male PR^lacz mice were anesthetized and the middle cerebral artery (MCA) was occluded for one hour with an intraluminal filament. After ligature of the left common carotid artery, a nylon monofilament coated with thermo-melting glue was introduced through an arteriotomy performed on the external carotid artery and advanced into the internal carotid artery. Occlusion of the MCA was controlled by monitoring the cerebral blood flow within the MCA territory by laser Doppler flowmetry. The filament was withdrawn one hour after occlusion to allow reperfusion, and the common carotid artery ligature was also removed. The mice were randomly and blindly assigned to either progesterone, allopregnanolone or Nestorone®, or vehicle-treated (sesame oil; sigma). All of the steroids were initially dissolved in a small volume of ethanol and further diluted in sesame oil to obtain the desired final steroid concentrations. Injections were given interperitoneally (IP) at 1, 6, and 24 hours after MCA occlusion (MCAO) according to established neuroprotective protocols. Treated mice were killed at 48 hours after MCAO.
Cerebral infarct volumes and areas were determined after triphenyltetrazolium chloride (TTC) staining of brain sections. The details of this procedure are set forth in “Progesterone Receptors: A Key For Neuroprotection In Experimental Stroke,” Endocrinology, August 2012, 153(8), pp. 1-11, which is incorporated herein by reference thereto in its entirety. […] In FIGS. 11, 12 and 13, after the administration of progesterone and Nestorone®, in neuronal density the infarct (FIG. 11) and the penumbra (FIG. 12) can clearly be shown. In FIG. 13 the decrease in […] in the penumbra after administration of progesterone and Nestorone® is also clearly shown.

[3] = tested on: hippocampi of ovariectomized female Sprague Dawley rats; assay type: in vivo; conditions: progestin plus E2, hippocampi 24 hours after injection, FIG. 9A
Experimental: The impact of the combination of 17β-estradiol (E2) and various progestins on neurogenesis and cell viability […] was also carried out. Young adult ovariectomized female Sprague Dawley rates were thus divided into six groups and received injection of either E2 alone or E2 combined with one of the progestins. Hippocampi were isolated 24 hours later for Western blot analysis and flow cytometry to determine the impact of treatment on cell viability and neurogenesis respectively. The expression level of PCNA was assessed to determine the impact of the treatment compounds on entry into the cell cycle required for neurogenesis.

[4] = tested on: lysolecithin-demyelinated cerebellar slices; assay: Remyelination of lysolecithin-demyelinated cerebellar slices (MBP staining intensity); assay type: cell-based, rat or mouse; conditions: NES 20 μM, 3 days of incubation
Experimental: In the same animal model, cerebellar slices were cultured until myelination was complete, then incubated overnight with lysolecithin (LYSO) to produce demyelination utilizing a known technique, (15) followed by 3 days of incubation with NES 20 μM in fresh culture medium (10% penetration in slices). Slices were immunostained for MBP. […] MBP staining intensity was measured in cerebellar slices after completion of normal myelination, after demyelination with lysolecithin, and after 3 days of incubation with NES at 20 μm, RU486 at 10 μM, or NES+RU486.

[5] = tested on: hippocampus of Sprague-Dawley ovariectomized female rats; assay: In vivo NPC proliferation and cell viability in ovariectomized rats (Western blot, FACS of BrdU+ cells); design: species or system rat
Experimental: The generalized ability of the above in vitro findings to the in vivo condition were investigated. Analyses of NPC proliferation in rats and cell viability were conducted in three-month-old Sprague-Dawley ovariectomized female rats with various of the progestins. […] In order to assess the total number of BrdU+ cells, the contralateral hippocampal hemisphere used for protein analysis was fixed and processed by FACS analysis. The total number of BrdU+ cells per each hippocampus was determined and normalized to that of vehicle control. […] In order to measure cell viability in terms of promotion of mitochondrial function and reduction in oxidative damage expression of the alpha subunit of ATP synthase-Complex V (CVα) of the mitochondrial oxidative phosphorylation pathway was assessed by Western blot analysis.

Bax/Bcl-2 = assay: In vivo apoptotic activity, Bax/Bcl-2 ratio by Western blot; conditions: indicator of in vivo apoptotic activity
Source text: The effects of various progestins on apoptosis was studied using Western blot analysis to determine the expression level of Bax, an apoptosis mediator by […] to the mitochondria to release apoptotic factors such as cytochrome c and Bcl-2. The ratio of Bax to Bcl-2 was used as an indicator of in vivo apoptotic activity.

[6] = tested on: neural progenitor cell (NPC); assay: Neural progenitor cell proliferation, BrdU chemiluminescence ELISA; assay type: cell-based, rat
Experimental: In vitro studies were carried out to determine neural progenitor cell (NPC) regeneration in rats. Cell proliferation was determined by S phase incorporation of BrdU. After 4 to 6 hours starvation (medium without supplements), rNPCs were loaded with 10 μM BrdU in the presence or absence of bFGF and varying concentrations of P4 or test progestins in unsupplemented maintenance medium for 1d. The rNPCs were then processed as described previously (1, 14). After subtracting the value of the blank (without BrdU loading), data were analyzed using a one-way ANOVA, followed by a Neuman-Keuls post hoc test.

[7] = tested on: organotypic neonatal rat or mouse cerebellar slice culture; assay: Myelination in organotypic cerebellar slice culture, measured by myelin basic protein (MBP) immunoreactivity; assay type: cell-based
Source text: In experiments conducted in organotypic neonatal rat or mouse cerebellar slice culture, progesterone accelerated axon myelination (13,14).

[8] = PR^+/+ mice, 48 hours after MCAO

C=C1C[C@H]2[C@@H]3CCC4=CC(=O)CC[C@@H]4[C@H]3CC[C@]2(C)[C@@]1(OC(C)=O)C(C)=O [Nestorone®, 16-methylene-17α-acetoxy-19-norpregn-4-ene-3,20-dione]
androgenic response [1]: no androgenic or estrogenic action at all
estrogenic response [1]: no androgenic or estrogenic action at all
glucocorticoid response [1]: does not elicit a glucocorticoid effect except at doses 2.000-fold the therapeutic dose
neuroprotective efficacy against glutamate toxicity (LDH) ([2]; FIG. 5, NES and PROG at 10−7M): exerted the higher efficacy
neuroprotective efficacy against 200 μM glutamate (LDH release) compared with progesterone ([2]; dose-response, FIGS. 7A-F): comparable neuroprotective efficacy to that of progesterone
total infarct volume and ischemic lesions in cerebral cortex and subcortical structures, PR^+/+ mice (PR^lacz mice with MCAO; PR^+/+ mice): clearly reduced
increase of time on the rotarod (PR^lacz mice with MCAO; [8]): 33%
reduction of ischemic lesions in cerebral cortex (PR^lacz mice with MCAO; [8]): 22%
reduction of ischemic lesions in subcortical structures (PR^lacz mice with MCAO; [8]): 52%
reduction of total infarct volume (PR^lacz mice with MCAO; PR^+/+ mice, 48 hours after MCAO, IP at 1, 6 and 24 hours): 32%
total infarct volume and ischemic lesions in cerebral cortex and subcortical structures, PR^+/− mice (PR^lacz mice with MCAO; PR^+/− mice): not
protection against ischemic damage compared with progesterone (PR^lacz mice with MCAO; PR^−/−, PR^+/− and PR^+/+ mice, after ischemia and reperfusion): at least comparable results
efficient neuroprotective dose (PR^lacz mice with MCAO; after stroke): 0.08 mg/kg
dose improving neurological outcomes relative to that of progesterone (PR^lacz mice with MCAO; mouse, in vivo): 100 times lower
microglial density in the penumbra (neuroinflammatory responses) (PR^lacz mice with MCAO; treatment after stroke): reduced microglial density
neuronal density in the infarct and in the penumbra (PR^lacz mice with MCAO; treatment after stroke): significantly increases the neuronal density
PCNA expression and neural progenitor cell proliferation [3]: greatest magnitude of PCNA expression and neural progenitor cell proliferation
remyelination after lysolecithin demyelination [4]: produced remyelination
total number of BrdU+ cells per hippocampus ([5]; FACS, normalized to vehicle control, FIG. 8B): slightly superior to progesterone in significantly increasing Brd+ cell numbers
CDC2 protein expression ([5]; Western blot): significantly increased
PCNA expression at the protein level ([5]; Western blot, FIG. 8A): slightly superior to progesterone
expression of alpha subunit of ATP synthase-Complex V (CVα) ([5]; Western blot, FIG. 8C): increased CVA expression even greater than progesterone and levonorgestrel
ratio of Bax/Bcl-2 expression (Bax/Bcl-2): no effect
proliferation of progenitor cells compared with progesterone ([6]; FIG. 3 and FIG. 4): as effective or even more effective than progesterone
NPC proliferation (BrdU incorporation) compared with progesterone ([6]; at 24 hours, FIGS. 6A-D): comparably efficacious at their EC100 concentrations
promyelinating potency relative to PROG [7]: significantly more potent than PROG
concentration of equal promyelinating activity ([7]; NES at 20 μm as active as PROG at 50 μm (FIG. 1)): 20 μm
myelination measured by myelin basic protein (MBP) immunoreactivity ([7]; cerebellar slice culture): promote dose-dependent myelination
